Data reported in patent publication US20260015313A1, “AMINO ACID ACTIVE ESTER AND SALT THEREOF” (PeptiDream Inc., priority 2022, published 2026).

System: tRNA analog (microhelix)
Assay: Aminoacylation of tRNA analog (microhelix) with flexizyme eFx, acid PAGE analysis
Type: biochemical
Settings: 5 mM substrate, 50 mM Hepes-K pH 7.5, 600 mM MgCl2, 20% DMSO, on ice overnight, FIG. 1-3, 1-4
Procedure: (§1) In the present embodiment, a tRNA was aminoacylated with the active ester synthesized in Example 1 as a substrate using a flexizyme. In order to conveniently confirm acylation with various amino acids, the acylation reaction was performed using, instead of an initiating tRNA (tRNA^Met), a microhelix corresponding to a short analog of the initiating tRNA and the solution after the reaction was subjected to polyacrylamide gel electrophoresis analysis under acidic conditions in order to confirm the aminoacylation efficiency. The mobility of the band derived from the microhelix is slow when it has been aminoacylated. The aminoacylation efficiency can be determined by comparing the intensity of the microhelix band to that of the acylated microhelix band.
The acylation reaction was carried out overnight on ice in a 50 mM Hepes-K buffer (pH 7.5) and 600 mM MgCl2, with a 25 µM flexizyme (eFx), a 25 µM tRNA analog (microhelix) and 5 mM substrate added to 20% DMSO. […]
(§2) The detailed procedure was as follows: 4 μL of a 500 mM Hepes-K buffer (pH 7.5), 4 μL of a 250 µM flexizyme (eFx) and 4 μL of a 250 µM tRNA analog were added to 12 μL of ultrapure water, and the mixture was heated at 95° C. for 3 minutes, and allowed to cool at room temperature for 5 minutes. […] This solution was analyzed with 20% modified PAGE (50 mM sodium acetate, 6 M urea) under acidic conditions.

| Structure (SMILES) | acylation of tRNA analog by the flexizyme (aminoacylation efficiency) |
| --- | --- |
| N[C@@H](CCc1ccccc1)C(=O)OCC(F)(F)F [Compound No. 47, 2,2,2-trifluoroethyl (S)-2-amino-4-phenylbutanoate] | efficiently acylated |

System: tRNA analog (microhelix)
Assay: Aminoacylation of tRNA analog (microhelix) with flexizyme dFx, acid PAGE analysis
Type: biochemical
Settings: 5 mM substrate, 50 mM Hepes-K pH 7.5, 50 mM MgCl2, 20% DMSO, on ice overnight, FIG. 1-1, 1-2
Procedure: as §1
The acylation reaction was carried out overnight on ice in a 50 mM Hepes-K buffer (pH 7.5) and 50 mM MgCl2, with a 25 µM flexizyme (dFx), a 25 μM tRNA analog (microhelix) and a 5 mM substrate added to 20% DMSO. […]
as §2, with “1” for “4”, “(dFx)” for “(eFx)”, “3” for “12”, “2” for “3”

| Structure (SMILES) | acylation of tRNA analog by the flexizyme (aminoacylation efficiency) |
| --- | --- |
| CC[C@H](C)[C@H](N)C(=O)OCc1cc(Cl)nc(Cl)c1 [Compound No. 21, (2,6-dichloropyridin-4-yl)methyl L-isoleucinate] | efficiently acylated |
| NCC(=O)OCc1cc(Cl)nc(Cl)c1 [Compound No. 99, (2,6-dichloropyridin-4-yl)methyl glycinate] | efficiently acylated |

System: not listed separately
Assay: Differential scanning calorimetry (DSC) hazard determination (TDSC, QDSC; Category V Hazardous materials, self-reactive substances)
Type: physicochemical
Settings: about 2 mg, SUS pressure-resistant cell, to 500° C. at 10° C./min, nitrogen, line through 2,4-dinitrotoluene and benzoyl peroxide, on or above = hazardous, FIG. 2
From the text: Differential scanning calorimetry (DSC) can be used as a method for determining the hazard of an amino acid active ester (Akiyoshi et al., Netsu Sokutei 2018, 45(4), 161-167.; Sakira Kaneko, Netsu Sokutei 1995, 22(1), 36-43.). DSC is an effective means for assessing the hazard of a self-reactive substance, because it can measure the reaction starting temperature (TDSC) and the reaction heat (QDSC) with a trace amount of sample. […] In Japan, DSC is used as a test to determine whether a chemical substance falls under the Category V Hazardous materials (self-reactive substances) under the Japanese Fire Service Act.
Examples of the test for determining whether a chemical substance falls under the Category V Hazardous materials (self-reactive substances) in the Japanese Fire Service Act include a method involving using 2,4-dinitrotoluene and benzoyl peroxide as reference compounds, plotting the reference points of QDSC and TDSC for each of the compounds and drawing a straight line connecting the two points as the hazard determination line.
The QDSC and TDSC values of 2,4-dinitrotoluene (Compound No. 115) and benzoyl peroxide (Compound No. 116) were taken from the following literature: DSC Data Collection for Reactive Substances (2) (RIIS-SD-89), https://www.jniosh.johas.go.jp/publication/houkoku/houkoku_2007_03_list.html.
The detailed procedure for differential scanning calorimetry (DSC) is as follows:
The amino acid active ester (about 2 mg), which had been sealed in a SUS pressure-resistant cell, was set in a heat flux type differential scanning calorimeter, and heated to 500° C. at 10° C./min in an atmosphere of nitrogen 50 mL/min. The sealing into the cell was carried out in atmospheric air, and a blank cell was used as a reference material. The value of indium (In) measured under the same conditions was used as a standard for correction.
In FIG. 2, the dotted line indicates the hazard determination line. […] The abscissa axis indicates the log(TDSC-25) value, and the ordinate axis indicates the log QDSC value. In FIG. 2, -L-Hph-DBE_HCl indicates the hydrochloride of 3,5-dinitrobenzyl (S)-2-amino-4-phenylbutanoate (Compound No. 114), Gly-DBE_HCl indicates the hydrochloride of 3,5-dinitrobenzyl glycinate (Compound No. 112), -L-Ile-DBE_HCl indicates the hydrochloride of 3,5-dinitrobenzyl L-isoleucinate (Compound No. 111), -L-W7N-DBE_HCl indicates the hydrochloride of 3,5-dinitrobenzyl (S)-2-amino-3-(1H-pyrrolo[2,3-b]pyridin-3-yl)propanoate (Compound No. 113), -L-Ile-DCPE_HCl indicates (2,6-dichloropyridin-4-yl)methyl L-isoleucinate (Compound No. 21), -L-W7N-TEE_HCl indicates 2,2,2-trifluoroethyl (S)-2-amino-3-(1H-pyrrolo[2,3-b]pyridin-3-yl)propanoate (Compound No. 81), and Gly-DCPE_HCl indicates (2,6-dichloropyridin-4-yl)methyl glycinate (Compound No. 99).

| Structure (SMILES) | position of log QDSC vs log(TDSC-25) plot relative to hazard determination line |
| --- | --- |
| Cl.NCC(=O)OCc1cc(Cl)nc(Cl)c1 [Gly-DCPE_HCl, (2,6-Dichloropyridin-4-yl)methyl glycinate hydrochloride] | below the hazard determination line |
| CC[C@H](C)[C@H](N)C(=O)OCc1cc(Cl)nc(Cl)c1.Cl [L-Ile-DCPE_HCl, (2,6-Dichloropyridin-4-yl)methyl L-isoleucinate hydrochloride] | below the hazard determination line |
| CC[C@H](C)[C@H](N)C(=O)OCc1cc([N+](=O)[O-])cc([N+](=O)[O-])c1 [L-Ile-DBE_HCl, 3,5-dinitrobenzyl L-isoleucinate] | above the hazard determination line |
| N[C@@H](CCc1ccccc1)C(=O)OCc1cc([N+](=O)[O-])cc([N+](=O)[O-])c1 [L-Hph-DBE_HCl, 3,5-dinitrobenzyl (S)-2-amino-4-phenylbutanoate] | above the hazard determination line |
| Cl.Cl.N[C@@H](Cc1c[nH]c2ncccc12)C(=O)OCC(F)(F)F [L-W7N-TEE_HCl, 2,2,2-Trifluoroethyl (S)-2-amino-3-(1H-pyrrolo[2,3-b]pyridin-3-yl)propanoate dihydrochloride] | below the hazard determination line |
| NCC(=O)OCc1cc([N+](=O)[O-])cc([N+](=O)[O-])c1 [Gly-DBE_HCl, 3,5-dinitrobenzyl glycinate] | above the hazard determination line |
| N[C@@H](Cc1c[nH]c2ncccc12)C(=O)OCc1cc([N+](=O)[O-])cc([N+](=O)[O-])c1 [L-W7N-DBE_HCl, 3,5-dinitrobenzyl (S)-2-amino-3-(1H-pyrrolo[2,3-b]pyridin-3-yl)propanoate] | above the hazard determination line |
